The test system of data set [1] is human pluripotent stem cells. The data set is described as follows: Accelerated production of neuromesoderm progenitors directly from hPSCs, 24 hours (SOX2/T immunophenotype). It counts as cell-based. The method, then: Differentiation medium consisting of Essential 6 supplemented with LDN-193189 HCl (500 nM, Selleckchem cat #S7507, Houston, Tex. USA), BGJ398 (100 nM Selleckchem cat #S2183 Houston, and TX USA), and CHIR 99021 (3 uM, Tocris cat #4423, Bristol UK) was combined and distributed 2 mL per vitronectin-coated well of a 6-well plate. hPSCs were dissociated into small clumps (25-50 cells per clump) as indicated above. 0.2 to 0.4 mL cultures were seeded onto rhVTN-coated wells containing differentiation medium.
The previous scenario utilized a neuroectoderm intermediate for the generation of neuromesoderm. Because it has been shown that neuromesoderm can be derived directly from hPSCs, high levels of WNT signaling were incorporated into the day-1 neuroectoderm conditions to investigate whether this could induce neuromesoderm directly.

The test system of the next data set is day-1 neuroectoderm. Nature of the data set: Caudalization of day-1 neuroectoderm into neuromesoderm. It counts as cell-based, human. Particulars: by day 2. The method, then: Controversy currently exists surrounding the origin of the most caudal segments of the central nervous system that include the spinal cord. In vitro conditions for generating spinal cord tissue have traditionally relied upon the formation of anterior neural plate expressing SOX1+/FOXG1+/OTX2+/PAX5−/HOXB4− that is caudalized with factors such as FGF, WNT, and retinoic acid to create SOX1+/FOXG1−/OTX2−/PAX5−/HOXB4+ positive cervical spinal cord tissue. […] An additional 24 hours of WNT/FGF signaling converted this population into SOX1−/SOX2+/T+/TBX6−/HOXB4+ cervical-level neuromesoderm (FIG. 13).

In data set [2] the test system is human pluripotent stem cells. Nature of the data set: Accelerated neural induction of hPSCs/hiPSCs into neuroepithelium, 24 hours (NANOG/SOX2/SOX1/PAX6 immunostaining). Particulars: for Effect on NE formation of inhibitors of FGF signaling cascade components: standard neuralizing conditions. The format is cell-based. The method, then: Prior to passaging, a recombinant human vitronectin stock solution (500 ug/mL, Peprotech AF-140-09, Rocky Hill, N.J., USA) was diluted 1:100 in DPBS+/+ (ThermoFisher Scientific cat #14040-133, Waltham, Mass., USA) and used to coat 9.6 cm^2 tissue-culture treated wells (Fischer Scientific, Hampton, N.H.) for one hour at room temperature. hPSCs were washed once with 1 mL hypertonic citrate buffer (11) or equivalent and then incubated with 1 mL hypertonic citrate buffer (11) at 37° C. for 6 minutes until colony detachment occurred. The colonies were collected and processed into 25-50 cell fragments by trituration and the dissociation quenched with 5 mL Essential 6 Medium (ThermoFisher Scientific A1516401, Waltham, Mass., USA). Suspensions were collected into 15 mL conical tubes and centrifuged for 1 minute at 200×G. Supernatants were aspirated and pellets resuspended into 1.2 mL Essential 6 Medium (ThermoFisher Scientific A2858501, Waltham, Mass., USA) assuming a 1:6 split ratio. 0.2 mL cultures were seeded onto rhVTN-coated wells containing Essential 8 Medium. Cultures were maintained in Essential 8 Medium with daily media changes and passaged every 3 days.
Differentiation medium consisting of Essential 6 supplemented with LDN-193189 HCl (500 nM, Selleckchem cat #S7507, Houston, Tex. USA) and BGJ398 (100 nM Selleckchem cat #S2183 Houston, Tex. USA) was combined and distributed 2 mL per vitronectin-coated well of a 6-well plate. hPSCs were dissociated into small clumps (25-50 cells per clump) as indicated above. 0.2 to 0.4 mL cultures were seeded onto rhVTN-coated wells containing differentiation medium.
Conditions were assayed in which the ERK pathway was inhibited at both receptor and downstream intracellular effector levels. The VEGFR2/FGFR2 inhibitor SU5402 was compounded with previously known neurulation conditions containing the ALK2/3 receptor antagonist LDN 193189 and the ALK 4/5/7 receptor antagonist A8-30-1 to observe their combined effect on undifferentiated pluripotent stem cells.
24-hour differentiating cultures were analyzed prior to cell death for various transcription factors associated with pluripotency and NE formation. […] SOX2, common to both hPSCs and NE, was maintained.

The next data set relates to day-2 neuromesoderm. Nature of the data set: Conversion of day-2 neuromesoderm into spinal neuroepithelium. The format is cell-based, human. Particulars: day 3. The method, then:
Day-one Neuromesoderm progenitors were exposed to differentiation medium consisting of Essential 6 supplemented with CHIR 99021 (3 uM, Tocris cat #4423, Bristol UK) and FGF-Basic TS™ (20 ng/mL, Humanzyme cat #HZ-1286, Chicago, Ill. USA) for 24 hours. This day-two neuromesoderm was further exposed to differentiation medium consisting of Essential 6 supplemented with BGJ398 (100 nM Selleckchem cat #52183 Houston, Tex. USA) to create a day-three population of PAX3/SOX1/HOXB4-positive neuroepithelial cells.
It has been shown that retinoic acid signaling is needed to convert neuromesoderm into spinal cord neuroepithelium. […] It has been shown that retinoids exert multiple simultaneous functions in the developing spinal cord, inhibiting FGF signaling, while activating both WNT and SHH signaling. […] This spinal neuroepithelium was further characterized with respect to additional markers and discovered that it was partially PAX3-positive, an early spinal neural plate marker. The day-3 conditions were optimized to maximize PAX3 and it was discovered that moderate WNT signaling was needed in addition to FGF inhibition to derive a pure population of cervical neural plate epithelium homogeneously expression PAX3 (FIG. 18). To investigate the dorso-ventral patterning competency of these retinoid-independent spinal neuroepithelial cells, the day-3 cultures were exposed to SHH signaling. […]

Setting [3] is: 24-hour cultures, SU5402 with LDN 193189 and A8-30-1.

The structures appear in SMILES notation. “Also recorded” adds a separate entry of the source.

The record followed here is patent publication US11702629B2, “Acceleration of stem cell differentiation” (Regents of the University of Minnesota, priority 2017, dated 2023).

Turning to `Cc1c[nH]c(-c2cnc(NCCNc3ccc(C#N)cn3)nc2-c2ccc(Cl)cc2Cl)n1` [CHIR99021], the “HOXB4 expression of day-2 cultures” value in data set [1] (additional 24 hours incubation after day-1 neuromesoderm induction) is “upregulated the HOXB4 transcription factor”. The “Population induced from day-1 neuroectoderm by high WNT signaling” value with day-1 neuroectoderm is “sufficient to induce a SOX1−/SOX2+/T+/TBX6−/HOXB4− population by day 2”.

`COc1nccc(-c2c(-c3ccc(F)cc3)ncn2C2CCC(O)CC2)n1` (stereo not drawn) [SB239063]: the “Effect on NE formation of inhibitors of FGF signaling cascade components” value in data set [2] is reported as “had no effect”.

`Cc1c[nH]c(C=C2C(=O)Nc3ccccc32)c1CCC(=O)O` [SU5402, 3-[4-Methyl-2-(2-oxo-1,2-dihydro-indol-3-ylidenemethyl)-1H-pyrrol-3-yl]-propionic acid]: the “SOX1-positivity (cells)” value in data set [2] (24-hour cultures, SU5402 compounded with LDN 193189 and A8-30-1) was “greater than 90%”. Also, in data set [2] (setting [3]), the “NANOG positivity compared to undifferentiated control cultures” value is on record as “reduced NANOG positivity” and the SOX2 expression result is given as “maintained”. Besides, the “Outcome of continued culture” value in data set [2] (additional 48 hours, SU5402 with LDN 193189 and A8-30-1, data not shown) was “resulted in cell death”.

Take `CCN1CCN(c2ccc(Nc3cc(N(C)C(=O)Nc4c(Cl)c(OC)cc(OC)c4Cl)ncn3)cc2)CC1` [BGJ398, 3-(2,6-dichloro-3,5-dimethoxyphenyl)-1-(6-(4-(4-ethylpiperazin-1-yl)-phenylamino)pyrimidin-4-yl)-1-methylurea]: the “Induction of SOX1-immunoreactivity when substituted for SU5402 in the inhibitor cocktail” value in data set [2] (24 hours, panel of hPSC lines) is on record as “matches or exceeds marker expression levels seen when using SU5402”. Moreover, in the data set on day-2 neuromesoderm, the “Population created from day-2 neuromesoderm” value is “created a pure population of spinal neuroepithelium lacking evidence of neuromesoderm or somite tissues”.

On to `O=C(NOC[C@H](O)CO)c1ccc(F)c(F)c1Nc1ccc(I)cc1F` [PD0325901, N-[(2R)-2,3-Dihydroxypropoxy]-3,4-difluoro-2-[(2-fluoro-4-iodophenyl)amino]-benzamide], for which, in data set [2], the “Effect on NE formation of inhibitors of FGF signaling cascade components” value was “performed similarly to BGJ398; also recorded: substitutes for SU5402”. For the same molecule, the “Replacement of BGJ398 in neural induction” value in data set [2] (with LDN 193189) is “fully replaces use of BGJ398”. The “Replacement of BGJ398 in neuromesoderm formation” value in data set [1] (with LDN193189 and CHIR99021) is listed as “fully replaces use of BGJ398”.
